Like-named read-outs stand apart in the source and are kept apart here. No end group written: not given here.
What was measured:
[1] = tested on: E. coli; type: cell-based, Escherichia coli
Procedure: (§1) MIC assay was carried out by a microtiter broth dilution method as previously described in the NCSLA guidelines (Wiegand, I., Hilpert, K. & Hancock, R. E. Agar and broth dilution methods to determine the minimal inhibitory concentration (MIC) of antimicrobial substances. Nat Protoc 3, 163-175 (2008)). In brief, fresh overnight colonies were suspended to a turbidity of 0.5 units and further diluted in Mueller-Hinton broth (Becton Dickinson). For determination of MIC, peptides were dissolved in water at concentration 10 times higher than the required range by serial dilutions from a stock solution. Ten μl of each concentration was added to each corresponding well of a 96-well microtiter plate (polypropylene, Costar Corp.) and 90 μl of bacteria (1×10^5) in MH medium added. The plate was incubated at 37° C. for 16-18 h. MIC was taken as the lowest concentration where no visual growth of bacteria was detected.

[2] = tested on: P. aeruginosa; type: cell-based, Pseudomonas aeruginosa
Procedure: as §1

[3] = tested on: S. aureus; type: cell-based, Staphylococcus aureus
Procedure: as §1

[4] = tested on: E. faecalis; experiment: MIC, microtiter broth dilution; type: cell-based; settings: E. faecalis Clinical isolate 2374
Procedure: as §1

[5] = tested on: S. pneumoniae; type: cell-based
Procedure: as §1

[6] = tested on: S. pyogenes; type: cell-based; settings: S. pyogenes AP1
Procedure: as §1

[7] = tested on: human blood; settings: corresponding number for LL-37 (Malmsten et al., in manuscript); cited from earlier work

## ILRWPWWPWRRK-NH2 [Omiganan, reference compound]
[1]
  MIC: 20 µM
[1]; E. coli Clinical isolate 47.1
  MIC: 20 µM
[1]; E. coli Clinical isolate 49.1
  MIC: 10 µM
[2]; P. aeruginosa ATCC 27853
  MIC: 160 µM
[2]; P. aeruginosa Clinical isolate 10.5
  MIC: 40 µM
[2]; P. aeruginosa Clinical isolate 13.2
  MIC: 40 µM
[2]; P. aeruginosa Clinical isolate 23.1
  MIC: 40 µM
[2]; P. aeruginosa Clinical isolate 27.1
  MIC: > 160 µM
[2]; P. aeruginosa Clinical isolate 51.1
  MIC: 80 µM
[2]; P. aeruginosa Clinical isolate 62.1
  MIC: 20 µM
[2]; P. aeruginosa Clinical isolate 15159
  MIC: 20 µM
[2]; P. aeruginosa Clinical isolate 18488
  MIC: 20 µM
[3]; S. aureus ATCC 29213
  MIC: 10 µM
[3]; S. aureus Clinical isolate 1086
  MIC: 10 µM
[3]; S. aureus Clinical isolate 1088
  MIC: 20 µM
[3]; S. aureus Clinical isolate 1090
  MIC: 80 µM
[3]; S. aureus Clinical isolate 14312
  MIC: 20 µM
[3]; S. aureus Clinical isolate 16065
  MIC: 5 µM
[4]
  MIC: 160 µM
[5]; S. pneumoniae Clinical isolate I-95
  MIC: 1.25 µM
[5]; S. pneumoniae Clinical isolate I-104
  MIC: 160 µM
[5]; S. pneumoniae Clinical isolate PJ1354
  MIC: 10 µM
[5]; S. pneumoniae D39
  MIC: 5 µM
[5]; S. pneumoniae TIGR4
  MIC: 2.5 µM
[6]
  MIC: 5 µM

## CC[C@H](C)[C@H](NC(=O)[C@H](CCCCN)NC(=O)[C@H](CCC(=O)O)NC(=O)[C@H](CCCCN)NC(=O)[C@H](CO)NC(=O)[C@H](CCCCN)NC(=O)[C@H](CCCNC(=N)N)NC(=O)[C@H](Cc1ccccc1)NC(=O)[C@H](Cc1ccccc1)NC(=O)[C@H](CC(=O)O)NC(=O)CNC(=O)[C@H](CC(C)C)NC(=O)[C@@H](N)CC(C)C)C(=O)NCC(=O)N[C@@H](CCCCN)C(=O)N[C@@H](CCC(=O)O)C(=O)N[C@@H](Cc1ccccc1)C(=O)N[C@@H](CCCCN)C(=O)N[C@@H](CCCNC(=N)N)C(=O)N[C@H](C(=O)N[C@H](C(=O)N[C@@H](CCC(N)=O)C(=O)N[C@@H](CCCNC(=N)N)C(=O)N[C@H](C(=O)N[C@@H](CCCCN)C(=O)N[C@@H](CC(=O)O)C(=O)N[C@@H](Cc1ccccc1)C(=O)N[C@@H](CC(C)C)C(=O)N[C@@H](CCCNC(=N)N)C(=O)N[C@@H](CC(N)=O)C(=O)N[C@@H](CC(C)C)C(=O)N[C@H](C(=O)N1CCC[C@H]1C(=O)N[C@@H](CCCNC(=N)N)C(=O)N[C@H](C(=O)N[C@@H](CCC(=O)O)C(=O)N[C@@H](CO)C(=O)O)[C@@H](C)O)C(C)C)[C@@H](C)CC)C(C)C)[C@@H](C)CC [LL-37]
[7]
  Accompanying hemolysis in infected human blood: ~8%

Source: patent US9169315B2, “Heparin cofactor II fragments with anti-inflammatory and anti-coagulant activity” (XIMMUNE AB, priority 2009, dated 2015)
